These are literature values, as cited in US20110165699A1 (priority 2009, published 2011).

SMILES strings stand for the structures.

`CCc1c2c(nc3ccc(O)cc13)-c1cc3c(c(=O)n1C2)COC(=O)[C@]3(O)CC` [SN-38, 7-ethyl-10-hydroxy-camptotheen]: where the note is “Sasaki, Jpn. J. Cancer 1995”, the “inter-patient variability, CV in AUCs” value is recorded as 38.91%. Besides, the “intra- and inter-individual pharmacokinetic variability” value (has been reported) is on record as “more than 40 fold”.
